Results on 29 molecules are retold here after patent US20220402950A1, “SUBSTITUTED BENZIMIDAZOLES AS PAD4 INHIBITORS” (BRISTOL-MYERS SQUIBB COMPANY, priority 2018, published 2022).

Sequence of human PAD4 (hPAD4) (Q9UM07 whole entry): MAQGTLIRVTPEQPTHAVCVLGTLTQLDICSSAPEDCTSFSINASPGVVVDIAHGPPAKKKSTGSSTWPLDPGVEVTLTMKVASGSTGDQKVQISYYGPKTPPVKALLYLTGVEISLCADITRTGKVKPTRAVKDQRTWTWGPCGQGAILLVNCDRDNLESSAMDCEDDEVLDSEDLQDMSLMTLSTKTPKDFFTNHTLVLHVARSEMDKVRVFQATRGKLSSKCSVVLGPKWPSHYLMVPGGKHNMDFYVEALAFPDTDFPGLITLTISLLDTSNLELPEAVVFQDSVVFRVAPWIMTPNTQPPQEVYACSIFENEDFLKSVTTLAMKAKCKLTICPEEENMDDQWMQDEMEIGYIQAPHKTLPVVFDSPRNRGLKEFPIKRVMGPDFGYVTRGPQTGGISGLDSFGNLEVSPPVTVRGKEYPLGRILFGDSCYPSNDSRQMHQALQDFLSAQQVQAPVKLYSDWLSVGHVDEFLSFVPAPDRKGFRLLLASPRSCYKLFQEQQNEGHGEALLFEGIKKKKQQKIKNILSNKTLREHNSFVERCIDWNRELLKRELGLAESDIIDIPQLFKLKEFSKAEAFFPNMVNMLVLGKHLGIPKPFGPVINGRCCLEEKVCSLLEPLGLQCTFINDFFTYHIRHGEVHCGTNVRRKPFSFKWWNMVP

The target of the first test is human PAD4 (hPAD4) (Homo sapiens, UniProt Q9UM07). As to the kind of experiment: RFMS Human PAD4 Functional Assay. It is filed as biochemical. The note with it: hPAD4 RFMS IC50, human PAD4, rapid-fire mass spectrum (RFMS) assay; 5 nM hPAD4, 250 μM BAEE. As to the method: RFMS Human PAD4 Functional Assay:
Compounds were solubilized in 100% DMSO to achieve a 10 mM compound concentration. Compound stock solutions were stored at RT. A series of dilutions were prepared in DMSO and mixed 8 times with 20 μL mixing volume. Final top concentration of compound in the assay is 50 μM.
0.13 μL of compound solution was added to 13 μL of 10 nM PAD4 in assay buffer. After 30 min 13 μl of 500 μM of BAEE was added in 25 mM hepes, pH 7.5, 5 mM NaCl, 1 mM DTT, 0.2 mg/ml BSA, 0.01% CHAPS, 50 μM Calcium, 5 μM TPEN was added and the reaction incubated for 90 min at 37° C. The enzymatic reaction was quenched by addition of 15 μl of 6.1N TCA, 100% Final Concentration is 20%, 35 μl of 8.5 mM phenyl glyoxal (final concentration 4 mM) is then added and the reaction is incubated for 30 min at 37° C.
After 30 minutes the plates are spun down to remove all precipitate. The enzyme reaction was quenched with an equal volume of methanol containing internal standard (modified citrulline). Samples were loaded onto the Rapid Fire RF300 system (Agilent) wherein they were first sipped for 1000 ms and then directly loaded to a C18 separations cartridge using a mixture of acetonitrile containing 0.01% formic acid for 3000 ms desalting. The flow rate of the mobile phase was 1.5 ml/min.
The dwell time for each transition was set at 200 ms, and the ESI voltage was used at 5500 with a source temperature of 400° C. Extracted ion peaks for each transition were integrated using the Rapid Fire Integrator software. Peak area of analyte was normalized with internal standard.).
For `COc1cc(C(=O)N2C[C@H]3CC[C@@H]2[C@@H]3N)cc2nc(-c3cc4cccc(C5CC(O)C5)c4n3CC3CC3)n(C)c12` (mixture of isomers) [Example 18, cis- and trans-3-(2-{5-[(1R,4R,7R)-7-amino-2-azabicyclo[2.2.1]heptane-2-carbonyl]-7-methoxy-1-methyl-1H-1,3-benzodiazol-2-yl}-1-(cyclopropylmethyl)-1H-indol-7-yl)cyclobutan-1-ol], the midpoint of inhibition, the IC50, lay at 71 nM. Regarding `COc1cc(C(=O)N2C[C@H]3CC[C@@H]2[C@@H]3N)cc2nc(-c3cc4cccc(C5CC(C(N)=O)C5)c4n3CC3CC3)n(C)c12` (single isomer, unassigned) [Example 45], the half-inhibitory concentration (IC50) (in general, the concentration that gives 50% inhibition) turned out to be 25 nM.

For `COc1cc(C(=O)N2C[C@H]3CC[C@@H]2[C@@H]3N)cc2nc(-c3cc4cccc(C5CC(C(N)=O)C5)c4n3CC3CC3)n(C)c12` (single isomer, unassigned) [Example 46], the IC50 is 13 nM. The molecule `COc1cc(C(=O)N2C[C@H]3CC[C@@H]2[C@@H]3N)cc2nc(-c3cc4cccc(C5CC(C(=O)N(C)C)C5)c4n3CC3CC3)n(C)c12` (single isomer, unassigned) [Example 47] showed an IC50 of 13 nM. `COc1cc(C(=O)N2C[C@H]3CC[C@@H]2[C@@H]3N)cc2nc(-c3cc4cccc(C5CC(C(=O)N(C)C)C5)c4n3CC3CC3)n(C)c12` (single isomer, unassigned) [Example 48] showed an IC50 of 50 nM. Still for that read-out and setting: the result for `COc1cc(C(=O)N2C[C@H]3CC[C@@H]2[C@@H]3N)cc2nc(-c3cc4cccc(C5CC(C(=O)N6CCCC6)C5)c4n3CC3CC3)n(C)c12` (single isomer, unassigned) [Example 49] reads 34 nM; that for `COc1cc(C(=O)N2C[C@H]3CC[C@@H]2[C@@H]3N)cc2nc(-c3cc4cccc(C5CC(C(=O)N6CCCC6)C5)c4n3CC3CC3)n(C)c12` (single isomer, unassigned) [Example 50], 81 nM; that for `COc1cc(C(=O)N2C[C@H]3CC[C@@H]2[C@@H]3N)cc2nc(-c3cc4cccc(C5CC(C(=O)N6CC[C@@H](O)C6)C5)c4n3CC3CC3)n(C)c12` (single isomer, unassigned) [Example 51], 48 nM. On the same count and under the same terms, the result for `COc1cc(C(=O)N2C[C@H]3CC[C@@H]2[C@@H]3N)cc2nc(-c3cc4cccc(C5CC(C(=O)N6CC[C@@H](O)C6)C5)c4n3CC3CC3)n(C)c12` (single isomer, unassigned) [Example 52] reads 97 nM; that for `COc1cc(C(=O)N2C[C@H]3CC[C@@H]2[C@@H]3N)cc2nc(-c3cc4cccc(C5CC(C(=O)N6CC[C@H](O)C6)C5)c4n3CC3CC3)n(C)c12` (single isomer, unassigned) [Example 53], 51 nM; that for `COc1cc(C(=O)N2C[C@H]3CC[C@@H]2[C@@H]3N)cc2nc(-c3cc4cccc(C5CC(C(=O)N6CC[C@H](O)C6)C5)c4n3CC3CC3)n(C)c12` (single isomer, unassigned) [Example 54], 92 nM. `COc1cc(C(=O)N2C[C@H]3CC[C@@H]2[C@@H]3N)cc2nc(-c3cc4cccc(C5CC(C(=O)O)C5)c4n3CC3CC3)n(C)c12` (single isomer, unassigned) [Example 55] displayed an IC50 of 122 nM. On the same count and under the same terms, the figure for `COc1cc(C(=O)N2C[C@H]3CC[C@@H]2[C@@H]3N)cc2nc(-c3cc4cccc(C5CC(C(=O)O)C5)c4n3CC3CC3)n(C)c12` (single isomer, unassigned) [Example 56] is 170 nM. `COc1cc(C(=O)N2C[C@H](N)C[C@@H](F)C2)cc2nc(-c3cc4cccc(C5CC(C(N)=O)C5)c4n3CC3CC3)n(C)c12` (single isomer, unassigned) [Example 113] displayed an IC50 of 52 nM. For the molecule `COc1cc(C(=O)N2C[C@H](N)C[C@@H](F)C2)cc2nc(-c3cc4cccc(C5CC(C(N)=O)C5)c4n3CC3CC3)n(C)c12` (single isomer, unassigned) [Example 114], the IC50 is 81 nM.

The molecule `COc1cc(C(=O)N2C[C@H](N)C[C@@H](F)C2)cc2nc(-c3cc4cccc(C5CC(C(=O)N6CCCC6)C5)c4n3CC3CC3)n(C)c12` (single isomer, unassigned) [Example 115] registered an IC50 of 64 nM.

Molecule `COc1cc(C(=O)N2C[C@H](N)C[C@@H](F)C2)cc2nc(-c3cc4cccc(C5CC(C(=O)N6CCCC6)C5)c4n3CC3CC3)n(C)c12` (single isomer, unassigned) [Example 116] registered an IC50 of 95 nM.

Take `COc1cc(C(=O)N2C[C@H](N)C[C@@H](F)C2)cc2nc(-c3cc4cccc(C5CC(C(=O)N(C)C)C5)c4n3CC3CC3)n(C)c12` (single isomer, unassigned) [Example 117]: half-maximal inhibition (IC50) was put at 117 nM. Consider `COc1cc(C(=O)N2C[C@H](N)C[C@@H](F)C2)cc2nc(-c3cc4cccc(C5CC(C(=O)N(C)C)C5)c4n3CC3CC3)n(C)c12` (single isomer, unassigned) [Example 118], for which inhibition was half-maximal at 278 nM (IC50). The same measure, in the same setting: the result for `[2H]C([2H])([2H])N(C(=O)C1CC(c2cccc3cc(-c4nc5cc(C(=O)N6C[C@H]7CC[C@@H]6[C@@H]7N)cc(OC)c5n4C)n(CC4CC4)c23)C1)C([2H])([2H])[2H]` (single isomer, unassigned; isomer 1) [Example 195] reads 16 nM.

Staying with this test, now noted: human PAD4, rapid-fire mass spectrum (RFMS) assay; 5 nM hPAD4, 250 μM BAEE; read-out: hPAD4 RFMS IC50.
For the molecule “1-(2-(5-((1R,4R,7R)- 7-amino-2- azabicyclo[2.2.1]heptane- 2-carbonyl)-7- methoxy-1-methyl- 1H-benzo[d]imidazol- 2-yl)-1- (cyclopropylmethyl)- 1H-indol-7-yl)-N- (pyridin-3- yl)piperidine-1- carboxamide [Example 244]”, the 50% inhibitory concentration (IC50) was 19 nM. Regarding `CNC(=O)C1CC(c2cccc3cc(-c4nc5cc(C(=O)N6C[C@H]7CC[C@@H]6[C@@H]7N)cc(OC)c5n4C)n(CC4CC4)c23)C1` (single isomer, unassigned) [Example 43], the IC50 was 20 nM. The same measure, in the same setting: the figure for `CNC(=O)C1CC(c2cccc3cc(-c4nc5cc(C(=O)N6C[C@H]7CC[C@@H]6[C@@H]7N)cc(OC)c5n4C)n(CC4CC4)c23)C1` (single isomer, unassigned) [Example 44] is 48 nM; for `COc1cc(C(=O)N2C[C@H]3CC[C@@H]2[C@@H]3N)cc2nc(-c3cc4cccc(C5CC(NC(C)=O)C5)c4n3CC3CC3)n(C)c12` (single isomer, unassigned) [Example 58] it is 75 nM.

As for `COc1cc(C(=O)N2C[C@H]3CC[C@@H]2[C@@H]3N)cc2nc(-c3cc4cccc(C5CC(NC(C)=O)C5)c4n3CC3CC3)n(C)c12` (single isomer, unassigned) [Example 59], the IC50 is 59 nM. Still for that read-out and setting: the figure for `COc1cc(C(=O)N2C[C@H]3CC[C@@H]2[C@@H]3N)cc2nc(-c3cc4cccc(C5CCCC(C(N)=O)C5)c4n3CC3CC3)n(C)c12` (single isomer, unassigned) [Example 85] is 49 nM. On the same count and under the same terms, the result for `COc1cc(C(=O)N2C[C@H]3CC[C@@H]2[C@@H]3N)cc2nc(-c3cc4cccc(C5CCCC(C(N)=O)C5)c4n3CC3CC3)n(C)c12` (single isomer, unassigned) [Example 86] reads 40 nM; that for `CNC(=O)C1CC(c2cccc3cc(-c4nc5cc(C(=O)N6C[C@H](N)C[C@@H](F)C6)cc(OC)c5n4C)n(CC4CC4)c23)C1` (single isomer, unassigned) [Example 111], 76 nM; that for `CNC(=O)C1CC(c2cccc3cc(-c4nc5cc(C(=O)N6C[C@H](N)C[C@@H](F)C6)cc(OC)c5n4C)n(CC4CC4)c23)C1` (single isomer, unassigned) [Example 112], 145 nM.
